Drawing on PubChem BioAssay (NCI), this text covers TGI for 20 compounds.

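Five compound concentrations were applied to cells in 96-well plates for 48 hours; endpoints were derived by simple linear interpolation of the resulting dose-response curve. The concentration for full growth arrest is given as TGI.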

Holding throughout (assay): NCI tumour cell line growth inhibition, 48 h
Assay [1] has as its system SK-MEL-28 melanoma.
For assay [2], the system named is ACHN renal.
Assay [3] relates to A549 NSCLC.
Assay [4] deals with HCT-116 colon.
In assay [5] the test system is CAKI-1 renal.
Assay [6] has as its system MALME-3M melanoma.
Assay [7] relates to OVCAR-3 ovarian.
Assay [8] has as its system OVCAR-5 ovarian.
Assay [9] relates to SK-OV-3 ovarian.
For assay [10], the system named is MOLT-4 leukemia.

As to `COc1ccc(/C=C(\C#N)c2ccccn2)cc1OC`, the TGI in assay [1], in assay [2], in [3], in assay [4], in [5] and in assay [6] was > 100 µM in each case. The TGI in assay [7], in assay [8], in assay [9] and in assay [10] was > 100 µM each time.
With `CCCOC(=O)CCC(NC(=O)c1ccc(Nc2nc3ccccc3nc2-c2cccs2)cc1)C(=O)OCCC` (stereo not given), the TGI in assay [1] was > 100 µM; in assay [2], > 100 µM; in assay [3], > 100 µM; in assay [4], > 100 µM; in assay [5], > 100 µM; in assay [6], 88.9 µM. Also, the TGI in assay [7], in assay [8], in assay [9] and in assay [10] was > 100 µM throughout.
With `c1ccc(-c2cc(-c3ccccc3)nc(-c3ccncc3)c2)cc1`, the TGI in assay [1], in [2], in assay [3], in assay [4], in assay [5] and in assay [6] was > 100 µM in each case. Besides, the TGI in assay [7], in assay [8], in assay [9] and in [10] was > 100 µM throughout.
Regarding `CC(C)C1OC(=O)C(Cc2ccccc2)N(C)C(=O)C(C(C)C)OC(=O)C(Cc2ccccc2)N(C)C(=O)C(C(C)C)OC(=O)C(Cc2ccccc2)N(C)C1=O` (stereo not given), the TGI in assay [1] stood at 2.41 µM; in assay [2], 1.64 µM; in assay [3] it was 1.87 µM; in assay [4], 2.36 µM; in assay [5], 2.46 µM; in assay [6], 1.29 µM. Further, the TGI came out at 1.79 µM in assay [7], 2.44 µM in assay [8], 2.16 µM in [9] and 2.33 µM in assay [10].
Take `CN(CCNC(=O)c1nn(C)c2c1Cc1ccccc1-2)CCNC(=O)c1nn(C)c2c1Cc1ccccc1-2`: the TGI in [1] was 30.9 µM; in assay [2], 28.4 µM; in assay [3] it was 33.3 µM; in assay [4], 28.9 µM; in assay [5], 47.4 µM; in assay [6], 29.8 µM. The TGI in assay [7] worked out at 29.8 µM; in assay [8] it was 89 µM; in [9], 43.7 µM; in assay [10] it was 31.2 µM.
Turning to `O=C1CC2(CCN(Cc3ccccc3)CC2)C(=O)N1N1CCCCC1`, the TGI in [1], in assay [2], in assay [3], in assay [4], in assay [5] and in [6] was > 100 µM throughout. Moreover, the TGI in assay [7], in assay [8], in [9] and in assay [10] was > 100 µM throughout.
Regarding `O=C(NCC(O)COc1ccccc1)c1ccccc1O` (stereo not given), the TGI in assay [1], in [2], in assay [3], in [4], in assay [5] and in assay [6] was > 100 µM throughout. Moreover, the TGI was > 100 µM in assay [7], > 100 µM in [8], > 100 µM in assay [9] and 47.2 µM in assay [10].
For the compound `O=C(OC1C#CCSCC#C/C=C\1)c1ccc2c(c1)C(=O)c1ccccc1C2=O` (stereo not given), the TGI in assay [1], in assay [2], in assay [3], in [4], in assay [5] and in [6] was > 100 µM in each case. Moreover, the TGI is > 100 µM in [7], > 100 µM in assay [8], 70.6 µM in assay [9] and > 100 µM in assay [10].
Consider `C=CCN(C(C)=O)c1cc(OCc2ccccc2)c2c(c1)c(C)cn2S(=O)(=O)c1ccccc1`, for which the TGI was > 100 µM in assay [1]; 51.4 µM in assay [2]; > 100 µM in [3]; > 100 µM in assay [4]; > 54.7 µM in assay [5]; 34.2 µM in [6]. Besides, the TGI was > 27.7 µM in [7], > 100 µM in assay [8], > 100 µM in assay [9] and > 22 µM in [10].
For `CCCCCCCC(=O)NC(C)(C)C(=O)NCC(=O)NC(CC(C)C)C(=O)NC(C)(C)C(=O)NCC(=O)NCC(=O)NC(CC(C)C)C(=O)NC(C)(C)C(=O)NCC(=O)NC(C(=O)NC(CO)CC(C)C)C(C)CC` (stereo not given), the TGI was 7.32 µM in [1]; 8.75 µM in [2]; 8.01 µM in [3]; 7.09 µM in assay [4]; 8.07 µM in [5]; 8.93 µM in assay [6]. Moreover, the TGI in assay [7] turned out to be 6.36 µM; in [8] it was 6.94 µM; in [9] it was 7.61 µM; in [10], 9.43 µM.
As to `Cc1cccc(NC(=S)NNC(=O)c2cc(-c3ccccc3)nc3ccccc23)c1`, the TGI is > 100 µM in assay [1]; > 100 µM in [2]; 70.7 µM in [3]; 48.4 µM in [4]; 72.4 µM in assay [5]; 83.8 µM in assay [6]. Also, the TGI is 66.5 µM in [7], > 100 µM in [8], 59.2 µM in [9] and 84.3 µM in assay [10].
`COC(=O)c1sc2c(c1C(=O)OC)C(=Nc1ccc(OC)cc1)SC2=Nc1ccc(OC)cc1`: the TGI in [1] was 2.85 µM; in [2], 2.51 µM; in [3] it was 2.68 µM; in [4], 1.58 µM; in assay [5], 5.84 µM; in assay [6], 3.65 µM. Also, the TGI in [7] came out at 1.32 µM; in assay [8] it was 3.55 µM; in [9], 3.37 µM; in [10], 0.494 µM.
For `COc1cccc(C2c3cc4c(cc3OC(NNS(=O)(=O)c3ccc(C)cc3)C2C)OCO4)c1O` (stereo not given), the TGI in assay [1] was 78.8 µM; in [2], > 100 µM; in assay [3], > 100 µM; in assay [4], 30.1 µM; in assay [5], > 100 µM; in assay [6], 64.4 µM. The TGI in assay [7] was 57.5 µM; in assay [8] it was > 100 µM; in assay [9], > 100 µM; in [10], 52.1 µM.
As for `Cc1nc2nnc(CCCCCCCCc3nnc4nc(C)[nH]n34)n2[nH]1`, the TGI in assay [1], in assay [2], in assay [3], in assay [4], in assay [5] and in [6] was > 100 µM each time. Also, the TGI in [7], in assay [8], in assay [9] and in [10] was > 100 µM in each case.
`CCOc1c2c(cc3c1C(=O)c1c(OC)cccc1C3=O)C=C(OC)CC2`: the TGI in assay [1], in [2], in assay [3], in assay [4], in assay [5] and in assay [6] was > 25 µM each time. For the same compound, the TGI in assay [7], in [8], in [9] and in assay [10] was > 25 µM each time.
Consider `COc1ccc(Cl)cc1NC(=O)O/N=C(\Cl)C(C)C`, for which the TGI amounted to 42.9 µM in assay [1]; 4.21 µM in assay [2]; 37.9 µM in assay [3]; 45.5 µM in assay [4]; 3.24 µM in [5]; 5.28 µM in assay [6]. In addition, the TGI amounted to 18.7 µM in assay [7], 34.2 µM in [8], 34.7 µM in [9] and 6.11 µM in assay [10].
For `Cc1n[nH]c(=O)c2c3c([nH]c12)-c1ccccc1C3`, the TGI in assay [1], in [2], in assay [3], in [4], in assay [5] and in [6] was > 100 µM each time. Further, the TGI in assay [7], in [8], in assay [9] and in assay [10] was > 100 µM throughout.
For `CCN(CC)C(=O)N[C@@H](CC(C)C)C(=O)NC`, the TGI in assay [1], in [2], in [3], in assay [4], in assay [5] and in [6] was > 100 µM each time. Moreover, the TGI in assay [7], in assay [8], in assay [9] and in [10] was > 100 µM throughout.
`Cc1[nH]c2c(C)c3c([nH]c4ccc(Cl)cc43)c(C)c2c(=O)c1C`: the TGI in [1] is > 100 µM; in assay [2], 11.6 µM; in assay [3] it was 10 µM; in assay [4], 11.3 µM; in assay [5] it was 40.2 µM; in assay [6], 72.8 µM. In addition, the TGI is 18.9 µM in [7], 12.4 µM in assay [8], > 73.8 µM in [9] and 8.44 µM in [10].
In the case of `COc1ccc(/C=N/n2c(-c3ccccc3)n[nH]c2=O)c(OC)c1`, the TGI was > 100 µM in [1]; > 75.5 µM in [2]; > 100 µM in assay [3]; > 100 µM in assay [4]; > 100 µM in [5]; > 100 µM in assay [6]. Moreover, the TGI in assay [7] is > 100 µM; in assay [8], > 100 µM; in assay [9], > 74.6 µM; in [10], > 100 µM.
